Assay [1] deals with Trypanosoma brucei rhodesiense. Description: Antitrypanosomal activity against Trypanosoma brucei rhodesiense STIB900 infected in NMRI mouse assessed as survival at 5 mg/kg, ip. It is filed as functional, organism-based. Also noted: dose 5 mg/kg.
For assay [2], the system named is Trypanosoma brucei rhodesiense. Description: Antitrypanosomal activity against Trypanosoma brucei rhodesiense STIB900 infected in NMRI mouse assessed as survival days at 5 mg/kg, ip. It is filed as functional. The following applies: route intraperitoneal.
In assay [3] the test system is Trypanosoma brucei rhodesiense. Description: Antitrypanosomal activity against Trypanosoma brucei rhodesiense STIB900. It counts as functional, organism-based.
For assay [4], the system named is Plasmodium falciparum. Description: Antiplasmodial activity against Plasmodium falciparum K1. It is filed as functional, organism-based.
The subject of assay [5] is Trypanosoma brucei rhodesiense. The conditions noted are these: dose 20 mg/kg; route intraperitoneal.
Description: Antitrypanosomal activity against Trypanosoma brucei rhodesiense STIB900 infected in NMRI mouse assessed as survival days at 20 mg/kg, ip
The subject of assay [6] is Trypanosoma brucei rhodesiense. Description: Antitrypanosomal activity against Trypanosoma brucei rhodesiense STIB900 infected in NMRI mouse assessed as survival at 20 mg/kg, ip. It is filed as functional, organism-based. Also noted: dose 20 mg/kg.

The source made the active and inactive calls. The calls are words filed in the database; no cut-off is given here.

With `N=C(N)c1ccc(-c2cnc(-c3ccc(C(=N)N)cc3)cn2)cc1`, the outcome in assay [1] was inactive. Further, in assay [2], the Survival amounted to 36.5 days. In addition, the IC50 in assay [3] stood at 18 nM; in assay [4], 0.4 nM.

Turning to `N=C(N)c1ccc(-c2ccc(-c3cnc(C(=N)N)nc3)cn2)cc1`, in assay [1], the outcome was inactive. Also, the Survival in assay [2] was greater than 43.25 days. In addition, the results for the 50% inhibitory concentration (IC50) in assay [3] and in assay [4] were 12 nM and 1.5 nM, respectively.

With `N=C(N)c1ncc(-c2ccc(-c3cnc(C(=N)N)nc3)cc2)cn1`, the Survival in assay [2] is greater than 43.25 days. Also, the IC50 was 6 nM in assay [3] and 0.6 nM in assay [4].

`N=C(N)c1ccc(-c2ccc(-c3ccc(C(=N)N)cc3)cc2)cc1` registered a Survival in assay [5] greater than 47.75 days. For the same compound, the figures for the IC50 in assay [3] and in assay [4] were 5 nM and 1.4 nM, respectively.

As to `N=C(N)c1ccc(-c2ccc(-c3cnc(C(=N)N)nc3)cc2)cc1`, the Survival in assay [2] was greater than 46.25 days. In addition, the IC50 in assay [3] was determined as 4 nM; in assay [4], 0.6 nM.

Regarding `N=C(N)c1ccc(-c2ccc(-c3ccc(C(=N)N)nc3)cn2)cc1`, the Survival in assay [2] was greater than 60 days. Further, the results for the IC50 in assay [3] and in assay [4] were 6 nM and 1.1 nM, respectively.

As for `N=C(N)c1ccc(-c2ccc(-c3ccc(C(=N)N)cn3)cc2)cc1`, the Survival in assay [2] was greater than 56 days. In addition, the IC50 in assay [4] worked out at 1.3 nM.

Turning to `N=C(N)c1ccc(-c2ccc(-c3ccc(C(=N)N)cn3)o2)cc1`, the results for the Survival in assay [5] and in assay [2] were greater than 60 days and greater than 54.5 days, respectively. The result in assay [6] was Active.

Take `N=C(N)c1ccc(-c2ccc(-c3ccc(C(=N)N)cn3)cn2)cc1`: the Survival in assay [2] was greater than 60 days. Further, in assay [4], the midpoint of inhibition, the IC50, lay at 2.5 nM.

Take `N=C(N)c1ccc(-c2ccc(-c3cnc(C(=N)N)cn3)cn2)cc1`: in assay [2], the Survival was greater than 31.75 days. Half-maximal inhibition in assay [4] (IC50) was put at 5.7 nM.

Consider `N=C(N)c1ccc(-c2ccc(-c3ccc(C(=N)N)cc3)nc2)cc1`, for which the Survival in assay [2] is greater than 42 days. The IC50 in assay [3] came to 2 nM; in assay [4], 10 nM.

`N=C(N)c1ccc(-c2ccc(-c3ccc(C(=N)N)cc3)o2)cc1` [FURAMIDINE]: the Survival is greater than 57.75 days in assay [5] and greater than 46 days in assay [2].

Regarding `N=C(N)c1ccc(-c2ccc(-c3ccc(C(=N)N)nc3)cc2)cc1`, the result in assay [1] was inactive. Also, the Survival in assay [2] was greater than 48.75 days.

Take `N=C(N)c1ccc(-c2ccc(-c3ccc(C(=N)N)cn3)cc2)nc1`: in assay [2], the Survival was greater than 60 days. Besides, the IC50 in assay [3] is 47 nM; in assay [4] it was 10.1 nM.

`N=C(N)c1ccc(-c2cnc(-c3ccc(C(=N)N)cc3)nc2)cc1`: the result in assay [1] was inactive. The Survival in assay [2] was found to be 23.5 days.

For the compound `N=C(N)c1ccc(-c2ccc(-c3ccc(C(=N)N)cc3)nn2)cc1`, in assay [2], the Survival is greater than 49.25 days. The half-inhibitory concentration (IC50) in assay [3] was determined as 14 nM; in assay [4], 1.3 nM.

Regarding `N=C(N)c1ccc(-c2ccc(-c3ccc(C(=N)N)nc3)cc2)cn1`, the result in assay [1] was inactive. The Survival in assay [2] was greater than 51.5 days.

As a reminder, the IC50 is the concentration needed to halve the response being measured. Read a low IC50 as greater potency in that assay.

The record behind these values is ChEMBL document CHEMBL1152566, “Synthesis and activity of azaterphenyl diamidines against Trypanosoma brucei rhodesiense and Plasmodium falciparum” (Bioorg Med Chem, 2009).
